# Assay results as given in patent US10370387B2, “Tricyclic fused thiophene derivatives as JAK inhibitors” (Incyte Corporation, priority 2012, dated 2019).
# Tested on: human JAK1
# Assay: In vitro JAK kinase assay (HTRF, phosphorylation of biotinylated peptide), JAK1
# Format: biochemical
# Conditions: ratio of JAK2 IC50 to JAK1 IC50, 1 mM ATP
# Procedure: Compounds herein were tested for inhibitory activity of JAK targets according to the following in vitro assay described in Park et al., Analytical Biochemistry 1999, 269, 94-104. The catalytic domains of human JAK1 (a.a. 837-1142), JAK2 (a.a. 828-1132) and JAK3 (a.a. 781-1124) were expressed using baculovirus in insect cells and purified. The catalytic activity of JAK1, JAK2 or JAK3 was assayed by measuring the phosphorylation of a biotinylated peptide. The phosphorylated peptide was detected by homogenous time resolved fluorescence (HTRF). IC50s of compounds were measured for each kinase in the 40 μL reactions that contain the enzyme, ATP and 500 nM peptide in 50 mM Tris (pH 7.8) buffer with 100 mM NaCl, 5 mM DTT, and 0.1 mg/mL (0.01%) BSA. For the 1 mM IC50 measurements, ATP concentration in the reactions was 1 mM. Reactions were carried out at room temperature for 1 hour and then stopped with 20 μL 45 mM EDTA, 300 nM SA-APC, 6 nM Eu-Py20 in assay buffer (Perkin Elmer, Boston, Mass.). Binding to the Europium labeled antibody took place for 40 minutes and HTRF signal was measured on a PHERA star plate reader (BMG, Cary, N.C.). The Example compounds were each tested in the Example A assay (see Table 1 for data for the compounds of the examples as tested by the assay of Example A at 1 mM ATP).
row,Structure (SMILES),JAK2/JAK1
1,"C[C@@H](O)c1nc2cnc3ccsc3c2n1[C@H]1CC[C@@H](CC#N)OC1 [Example 21, ((2S,5S)-5-{2-[(1R)-1-Hydroxyethyl]-1H-imidazo[4,5-d]thieno[3,2-b]pyridin-1-yl}tetrahydro-2H-pyran-2-yl)acetonitrile]",>10
2,"CS(=O)(=O)NCc1nc2cnc3ccsc3c2n1[C@H]1CC2CCC1C2 (stereo partly drawn) [Example 22, N-((1-((2S)-Bicyclo[2.2.1]heptan-2-yl)-1H-imidazo[4,5-d]thieno[3,2-b]pyridin-2-yl)methyl)methanesulfonamide]",>4
3,"N#CC[C@H]1CC[C@H](n2/c(=N/C#N)[nH]c3cnc4ccsc4c32)CC1.O=C(O)C(F)(F)F [Example 25, {(2E)-1-[trans-4-(Cyanomethyl)cyclohexyl]-1,3-dihydro-2H-imidazo[4,5-d]thieno[3,2-b]pyridin-2-ylidene}cyanamide trifluoroacetate]",>6
4,"Cc1nc2cnc3ccsc3n2c1-c1ccc(CC#N)cc1 [Example 33, [4-(7-Methylimidazo[1,2-a]thieno[3,2-e]pyrazin-8-yl)phenyl]acetonitrile]",>7
5,"C[C@@H](O)c1nc2cnc3ccsc3c2n1[C@@H]1CC[C@@H](CC#N)OC1 [Example 44, ((2S,5R)-5-{2-[(1R)-1-Hydroxyethyl]-1H-imidazo[4,5-d]thieno[3,2-b]pyridin-1-yl}tetrahydro-2H-pyran-2-yl)acetonitrile]",>10
6,"C[C@H](O)c1nc2cnc3ccsc3c2n1[C@H]1CC[C@H](CC#N)OC1 [Example 45, ((2R,5S)-5-{2-[(1S)-1-Hydroxyethyl]-1H-imidazo[4,5-d]thieno[3,2-b]pyridin-1-yl}tetrahydro-2H-pyran-2-yl)acetonitrile]",>10
7,"CCOC(=O)N1CCC[C@H](n2c([C@@H](C)O)nc3cnc4ccsc4c32)C1 [Example 50, Ethyl (3S)-3-{2-[(1R)-1-hydroxyethyl]-1H-imidazo[4,5-d]thieno[3,2-b]pyridin-1-yl}piperidine-1-carboxylate]",>10
8,"C[C@@H](O)c1nc2cnc3ccsc3c2n1[C@H]1CCCN(C(=O)CC#N)C1.O=C(O)C(F)(F)F [Example 51, 3-((3S)-3-{2-[(1R)-1-Hydroxyethyl]-1H-imidazo[4,5-d]thieno[3,2-b]pyridin-1-yl}piperidin-1-yl)-3-oxopropanenitrile trifluoroacetate]",>10
9,"C[C@@H](O)c1nc2cnc3ccsc3c2n1[C@H]1CCCN(C(=O)CCC(F)(F)F)C1 [Example 52, (1R)-1-{1-[(3S)-1-(4,4,4-Trifluorobutanoyl)piperidin-3-yl]-1H-imidazo[4,5-d]thieno[3,2-b]pyridin-2-yl}ethanol]",>10
10,"C[C@@H](O)c1nc2cnc3ccsc3c2n1[C@H]1CCCN(C(=O)CCc2cn[nH]c2)C1 [Example 53, (1R)-1-(1-{(3S)-1-[3-(1H-Pyrazol-4-yl)propanoyl]piperidin-3-yl}-1H-imidazo[4,5-d]thieno[3,2-b]pyridin-2-yl)ethanol]",>10
11,"C[C@@H](O)c1nc2cnc3ccsc3c2n1[C@H]1CCCN(C(=O)CCc2cccnc2)C1 [Example 54, (1R)-1-{1-[(3S)-1-(3-Pyridin-3-ylpropanoyl)piperidin-3-yl]-1H-imidazo[4,5-d]thieno[3,2-b]pyridin-2-yl}ethanol]",>10
12,"CC(CC(=O)N1CCC[C@H](n2c([C@@H](C)O)nc3cnc4ccsc4c32)C1)c1ccccc1 (stereo partly drawn) [Example 55, (1R)-1-{1-[(3S)-1-(3-Phenylbutanoyl)piperidin-3-yl]-1H-imidazo[4,5-d]thieno[3,2-b]pyridin-2-yl}ethanol]",>10
13,C[C@@H](O)c1nc2cnc3ccsc3c2n1[C@H]1CCCN(C(=O)CCc2ccccc2)C1 [Example 57],>10
14,"C[C@@H](O)c1nc2cnc3ccsc3c2n1C1CCN(CCCC(F)(F)F)CC1 [Example 60, (1R)-1-{1-[1-(4,4,4-Trifluorobutyl)piperidin-4-yl]-1H-imidazo[4,5-d]thieno[3,2-b]pyridin-2-yl}ethanol]",>10
15,"C[C@@H](O)c1nc2cnc3ccsc3c2n1C1CCN(CC#N)CC1.O=C(O)C(F)(F)F [Example 61, (4-{2-[(1R)-1-Hydroxyethyl]-1H-imidazo[4,5-d]thieno[3,2-b]pyridin-1-yl}piperidin-1-yl)acetonitrile trifluoroacetate]",>10

# More lines, now with the values ahead:
row,JAK2/JAK1,Structure (SMILES)
1,>10,"C[C@@H](O)c1cc2cnc3ccsc3c2n1[C@H]1CC[C@H](CC#N)CC1 [Example 23, (trans-4-{7-[(1R)-1-Hydroxyethyl]-8H-pyrrolo[2,3-d]thieno[3,2-b]pyridin-8-yl}cyclohexyl)acetonitrile]"
2,>10,"N#CC[C@H]1CC[C@H](n2c(C3CC3)nc3cnc4ccsc4c32)CC1 [Example 26, [trans-4-(2-Cyclopropyl-1H-imidazo[4,5-d]thieno[3,2-b]pyridin-1-yl)cyclohexyl]acetonitrile]"
3,>10,"CC(C)c1nc2cnc3ccsc3c2n1[C@H]1CC[C@H](CC#N)CC1 [Example 27, [trans-4-(2-Isopropyl-1H-imidazo[4,5-d]thieno[3,2-b]pyridin-1-yl)cyclohexyl]acetonitrile]"
4,>7,"N#CC[C@H]1CC[C@H](n2c(C3CNC3)nc3cnc4ccsc4c32)CC1 [Example 28, [trans-4-(2-Azetidin-3-yl-1H-imidazo[4,5-d]thieno[3,2-b]pyridin-1-yl)cyclohexyl]acetonitrile]"
5,>9,"CN1CC(c2nc3cnc4ccsc4c3n2[C@H]2CC[C@H](CC#N)CC2)C1 [Example 29, {trans-4-[2-(1-Methylazetidin-3-yl)-1H-imidazo[4,5-d]thieno[3,2-b]pyridin-1-yl]cyclohexyl}acetonitrile]"
6,>10,"CCNC(=O)C[C@H]1CC[C@H](n2c([C@@H](C)O)nc3cnc4ccsc4c32)CC1 [Example 31, N-Ethyl-2-(trans-4-{2-[(1R)-1-hydroxyethyl]-1H-imidazo[4,5-d]thieno[3,2-b]pyridin-1-yl}cyclohexyl)acetamide]"
7,>10,"C[C@@H](O)c1nc2cnc3ccsc3c2n1C1CCCC(CCC#N)C1 (stereo partly drawn) [Example 32, 3-(3-{2-[(1R)-1-Hydroxyethyl]-1H-imidazo[4,5-d]thieno[3,2-b]pyridin-1-yl}cyclohexyl)propanenitrile]"
8,>10,"Cc1nc2cnc3ccsc3c2n1[C@H]1CC[C@H](CC#N)OC1 [Example 38, [(2R,5S)-5-(2-Methyl-1H-imidazo[4,5-d]thieno[3,2-b]pyridin-1-yl)tetrahydro-2H-pyran-2-yl]acetonitrile]"
9,>10,"CCc1nc2cnc3ccsc3c2n1[C@H]1CC[C@H](CC#N)OC1 [Example 39, [(2R,5S)-5-(2-Ethyl-1H-imidazo[4,5-d]thieno[3,2-b]pyridin-1-yl)tetrahydro-2H-pyran-2-yl]acetonitrile]"
10,>10,"CC(C)c1nc2cnc3ccsc3c2n1[C@H]1CC[C@H](CC#N)OC1 [Example 42, [(2R,5S)-5-(2-Isopropyl-1H-imidazo[4,5-d]thieno[3,2-b]pyridin-1-yl)tetrahydro-2H-pyran-2-yl]acetonitrile]"
11,>10,"N#CC[C@H]1CC[C@H](n2c(C3CC3)nc3cnc4ccsc4c32)CO1 [Example 43, [(2R,5S)-5-(2-Cyclopropyl-1H-imidazo[4,5-d]thieno[3,2-b]pyridin-1-yl)tetrahydro-2H-pyran-2-yl]acetonitrile]"
12,>10,"CCc1nc2cnc3ccsc3c2n1[C@H]1CC[C@H](CC#N)CC1 [Example 47, [trans-4-(2-Ethyl-1H-imidazo[4,5-d]thieno[3,2-b]pyridin-1-yl)cyclohexyl]acetonitrile]"
13,>7,"Cc1nc2cnc3ccsc3c2n1[C@H]1CC[C@H](CC#N)CC1 [Example 48, [trans-4-(2-Methyl-1H-imidazo[4,5-d]thieno[3,2-b]pyridin-1-yl)cyclohexyl]acetonitrile]"
14,>10,"C[C@@H](O)c1nc2cnc3ccsc3c2n1[C@H]1CC[C@@H](CC#N)C1.O=C(O)C(F)(F)F [Example 49, ((1R,3S)-3-{2-[(1R)-1-Hydroxyethyl]-1H-imidazo[4,5-d]thieno[3,2-b]pyridin-1-yl}cyclopentyl)acetonitrile trifluoroacetate]"
15,>10,"C[C@@H](O)c1nc2cnc3ccsc3c2n1[C@H]1CCCN(CCC#N)C1 [Example 56, 3-((3S)-3-{2-[(1R)-1-Hydroxyethyl]-1H-imidazo[4,5-d]thieno[3,2-b]pyridin-1-yl}piperidin-1-yl)propanenitrile]"
16,>10,"C[C@@H](O)c1nc2cnc3ccsc3c2n1[C@H]1CCCN(C(=O)CCC#N)C1 [Example 58, 4-((3S)-3-{2-[(1R)-1-Hydroxyethyl]-1H-imidazo[4,5-d]thieno[3,2-b]pyridin-1-yl}piperidin-1-yl)-4-oxobutanenitrile]"
17,>10,"C[C@@H](O)c1nc2cnc3ccsc3c2n1[C@H]1CCCN(C(=O)CCCC#N)C1 [Example 59, 5-((3S)-3-{2-[(1R)-1-Hydroxyethyl]-1H-imidazo[4,5-d]thieno[3,2-b]pyridin-1-yl}piperidin-1-yl)-5-oxopentanenitrile]"
18,>10,"C[C@@H](O)c1nc2cnc3ccsc3c2n1[C@H]1CCN(CCC#N)C1 [Example 62, 3-((3S)-3-{2-[(1R)-1-Hydroxyethyl]-1H-imidazo[4,5-d]thieno[3,2-b]pyridin-1-yl}pyrrolidin-1-yl)propanenitrile]"
